This is an account of results in ChEMBL document CHEMBL1201862, “PubChem BioAssay data set” (2004).

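Results reflect a 48-hour exposure of cells in 96-well plates to compound at five concentrations. GI50: concentration for 50% inhibition of growth.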 Calls of active or inactive are those of the source. Rule as the data show it: active = GI50 up to about 1.1 µM and inactive = higher. Residues, ends and D or L forms follow the SMILES beside them. *: point of attachment. Boc = CC(C)(C)OC(=O)* A value given as a limit tells only on which side of the number the result lay.

Among the test systems are OVCAR-5; UACC-257; U-251; LOX IMVI; HOP-62; SF-539; SNB-19; HCT-116; HCT-15; OVCAR-8; MCF7; SK-MEL-5; MDA-MB-231; Malme-3M; MOLT-4; MDA-N; OVCAR-4; RXF 393; SK-MEL-2.
Holding throughout (experiment): NCI-60 cell line screen, 48 h

Consider `N/C(=N\OC(=O)NC(Cl)=C(Cl)Cl)c1cc(C(F)(F)F)cc(C(F)(F)F)c1`, for which the GI50 is 21.1 µM (inactive) in the experiment with OVCAR-5; 16.1 µM (inactive) in the experiment with UACC-257; 16 µM (inactive) in the experiment on U-251; 16.3 µM (inactive) with LOX IMVI; 17.9 µM (inactive) in the experiment with HOP-62; 16 µM (inactive) with SF-539. The GI50 in the experiment on SNB-19 was 18.7 µM (inactive); with HCT-116, 18.6 µM (inactive); in the experiment with HCT-15 it was 17.3 µM; in the experiment with OVCAR-8, 20.1 µM (inactive); in the experiment on MCF7, 25.1 µM (inactive); in the experiment on SK-MEL-5, 26.8 µM (inactive). In addition, the GI50 in the experiment with MDA-MB-231 is 15.8 µM (inactive); in the experiment with Malme-3M, 23.9 µM (inactive); with MOLT-4, 9.48 µM (inactive); in the experiment with MDA-N it was 21.5 µM (inactive).
For `O=C1NC(=S)NC(=O)C1C(c1ccc(Cl)cc1)C1C(=O)NC(=S)NC1=O.c1ccncc1`, the GI50 with OVCAR-5, in the experiment on UACC-257, in the experiment on U-251, in the experiment with LOX IMVI, with OVCAR-4 and in the experiment on HOP-62 was > 100 µM (inactive) throughout. Moreover, the GI50 is > 100 µM (inactive) in the experiment with SNB-19; > 100 µM (inactive) in the experiment with HCT-116; > 100 µM (inactive) in the experiment on RXF 393; over 100 µM in the experiment on HCT-15; > 100 µM (inactive) in the experiment on OVCAR-8; > 100 µM (inactive) in the experiment on MCF7. Further, the GI50 is > 100 µM (inactive) in the experiment on SK-MEL-2; > 100 µM (inactive) with SK-MEL-5; > 100 µM (inactive) in the experiment on MDA-MB-231; 60.8 µM (inactive) with Malme-3M; > 100 µM (inactive) with MOLT-4; > 100 µM (inactive) in the experiment on MDA-N.
`C[C@]12CC[C@H](O)CC1=CC[C@@H]1C2CC[C@]2(C)Nc3c(cnn3-c3ccc(F)cc3)CC12` (some centres not stated): the GI50 was > 100 µM (inactive) in the experiment with OVCAR-5; 60.8 µM (inactive) with UACC-257; 6.3 µM (inactive) with U-251; 3.2 µM (inactive) in the experiment with LOX IMVI; 19 µM (inactive) in the experiment on OVCAR-4; 10.8 µM (inactive) with HOP-62. In addition, the GI50 in the experiment on SF-539 was 1.46 µM (inactive); in the experiment on SNB-19, 19.3 µM (inactive); in the experiment with HCT-116 it was 14.7 µM (inactive); with RXF 393, 2.25 µM (inactive); in the experiment on HCT-15 it was over 100 µM; in the experiment on OVCAR-8 it was 23.3 µM (inactive). For the same compound, the GI50 is > 52.2 µM (inactive) with MCF7; 25.2 µM (inactive) with SK-MEL-5; > 41.8 µM (inactive) in the experiment on MDA-MB-231; 14.2 µM (inactive) in the experiment on Malme-3M; 3.48 µM (inactive) in the experiment with MOLT-4; > 53.8 µM (inactive) in the experiment on MDA-N.
With `Cc1ccc(S(=O)(=O)n2c(-c3ccccc3)c(-c3ccccc3)c3ccccc32)cc1`, the GI50 with OVCAR-5, with UACC-257, in the experiment with U-251, with LOX IMVI, with OVCAR-4 and with HOP-62 was > 100 µM (inactive) each time. For the same compound, the GI50 in the experiment on SF-539 is > 100 µM (inactive); in the experiment with SNB-19, > 100 µM (inactive); in the experiment with HCT-116, > 100 µM (inactive); in the experiment with RXF 393, > 100 µM (inactive); in the experiment on HCT-15, over 100 µM; in the experiment on OVCAR-8, > 100 µM (inactive). For the same compound, the GI50 in the experiment on SK-MEL-2 is > 100 µM (inactive); with SK-MEL-5, 20.3 µM (inactive); with Malme-3M it was > 100 µM (inactive); with MOLT-4 it was > 100 µM (inactive).
As to `CC(C)(C)[Si](C)(C)OC1/C(=C/C#N)C(n2ccc(=O)[nH]c2=O)OC1CO` (configuration not stated), the GI50 with OVCAR-5, in the experiment with U-251, with OVCAR-4, in the experiment on HOP-62, in the experiment on SF-539 and in the experiment with SNB-19 was > 100 µM (inactive) in each case. Moreover, the GI50 with HCT-116, in the experiment with RXF 393, in the experiment on OVCAR-8, in the experiment on MCF7, with SK-MEL-2 and with SK-MEL-5 was > 100 µM (inactive) throughout. The GI50 in the experiment on MDA-MB-231, in the experiment with Malme-3M, in the experiment with MOLT-4 and in the experiment on MDA-N was > 100 µM (inactive) in each case.
`COC(=O)C(CCCCCCCC(C(=O)OC)C1=Nc2nnc(N)n2C1=O)C1=Nc2nnc(N)n2C1=O` (configuration not stated): the GI50 with OVCAR-5, in the experiment on UACC-257, in the experiment on U-251, in the experiment with LOX IMVI, with OVCAR-4 and in the experiment with HOP-62 was > 100 µM (inactive) throughout. Moreover, the GI50 in the experiment with SF-539 is 84.3 µM (inactive); with SNB-19, > 100 µM (inactive); in the experiment with HCT-116, > 100 µM (inactive); with RXF 393, 55.8 µM (inactive); with HCT-15, over 100 µM; with OVCAR-8, 94.8 µM (inactive). For the same compound, the GI50 in the experiment with SK-MEL-2, in the experiment with SK-MEL-5, with Malme-3M and in the experiment with MOLT-4 was > 100 µM (inactive) throughout.
With `Cc1ccc(C(=O)N/N=C(\N=N\c2cccc(Cl)c2)c2ccc(N(CCC#N)CCC#N)cc2C)cc1`, the GI50 in the experiment with OVCAR-5, in the experiment with UACC-257, in the experiment with U-251, with LOX IMVI, with OVCAR-4 and with HOP-62 was > 100 µM (inactive) throughout. The GI50 is > 100 µM (inactive) in the experiment on SF-539; > 100 µM (inactive) in the experiment with SNB-19; > 100 µM (inactive) in the experiment on HCT-116; 29.4 µM (inactive) in the experiment with RXF 393; over 100 µM with HCT-15; 79.4 µM (inactive) in the experiment with OVCAR-8. Further, the GI50 was > 100 µM (inactive) with MCF7; > 100 µM (inactive) in the experiment on SK-MEL-2; > 100 µM (inactive) in the experiment with SK-MEL-5; > 100 µM (inactive) with MDA-MB-231; > 100 µM (inactive) in the experiment on Malme-3M; 41.5 µM (inactive) with MOLT-4. Also, in the experiment with MDA-N, the GI50 was > 100 µM (inactive).
Take `C=C1c2nc3ccccc3n2C=C(c2ccccc2)N1c1ccc(OC)cc1`: the GI50 in the experiment with OVCAR-5 was 43.7 µM (inactive); with UACC-257 it was 31.8 µM (inactive); with U-251, 37.8 µM (inactive); in the experiment on LOX IMVI, 50 µM (inactive); in the experiment on OVCAR-4 it was 13.7 µM (inactive); with SF-539, 14 µM (inactive). The GI50 with HCT-116 is 17.5 µM (inactive); with RXF 393, 11.7 µM (inactive); in the experiment on HCT-15, 6.9 µM; in the experiment on OVCAR-8 it was 13.2 µM (inactive); in the experiment on MCF7 it was 6.81 µM (inactive); in the experiment on SK-MEL-2, 28.6 µM (inactive). Moreover, the GI50 in the experiment on SK-MEL-5 was 11.1 µM (inactive); in the experiment on MDA-MB-231 it was 40.2 µM (inactive); with Malme-3M, 14.2 µM (inactive); in the experiment on MOLT-4 it was 18.9 µM (inactive); in the experiment on MDA-N, 49.9 µM (inactive).
Regarding `CN1CCCOC(c2ccc(Cl)cc2)O1` (configuration not stated), the GI50 with OVCAR-5, with UACC-257, in the experiment with U-251, with LOX IMVI, with OVCAR-4 and in the experiment with HOP-62 was > 100 µM (inactive) throughout. Also, the GI50 in the experiment with SF-539 was > 100 µM (inactive); in the experiment with SNB-19, > 100 µM (inactive); with HCT-116, > 100 µM (inactive); in the experiment with RXF 393, > 100 µM (inactive); in the experiment on HCT-15 it was over 100 µM; in the experiment on OVCAR-8, > 100 µM (inactive). Also, the GI50 in the experiment on MCF7, with SK-MEL-2, in the experiment with SK-MEL-5, in the experiment with MDA-MB-231, in the experiment with Malme-3M and in the experiment with MOLT-4 was > 100 µM (inactive) throughout. In addition, in the experiment on MDA-N, the GI50 was > 100 µM (inactive).
Take `CN(C)Cc1cc(/C=C/C(=O)c2ccc(Br)cc2)cc(CN(C)C)c1O`: the GI50 in the experiment on OVCAR-5 was 35.2 µM (inactive); in the experiment with UACC-257 it was 17.2 µM (inactive); in the experiment with HOP-62, 30.1 µM (inactive); with SF-539, 13.1 µM (inactive); with SNB-19 it was 20.3 µM (inactive); in the experiment on HCT-116, 14.8 µM (inactive). In addition, the GI50 with RXF 393 is 19.2 µM (inactive); with OVCAR-8, 29.2 µM (inactive); in the experiment with MCF7 it was 22.6 µM (inactive); in the experiment with SK-MEL-2, 26.2 µM (inactive); in the experiment with SK-MEL-5 it was 19.6 µM (inactive); in the experiment with MDA-MB-231, 14.7 µM (inactive). Further, the GI50 in the experiment with Malme-3M is 16.7 µM (inactive); with MOLT-4, 9.95 µM (inactive); in the experiment on MDA-N it was 17.1 µM (inactive).
Consider `COC(=O)C(Cc1c[nH]c2ccccc12)NC(=O)C(Cc1c[nH]c2ccccc12)NC(=O)C(Cc1c[nH]c2ccccc12)NC(=O)C(Cc1c[nH]c2ccccc12)NC(=O)C(Cc1c[nH]c2ccccc12)NC(=O)C(Cc1c[nH]c2ccccc12)NC(=O)OC(C)(C)C` (configuration not stated) (Boc-WWWWWW-OMe; configuration not given here), for which the GI50 in the experiment with OVCAR-5 was > 100 µM (inactive); in the experiment on UACC-257 it was 30.3 µM (inactive); with U-251, 54.7 µM (inactive); in the experiment with LOX IMVI it was 38.1 µM (inactive); with OVCAR-4, > 100 µM (inactive); in the experiment on HOP-62, > 100 µM (inactive). For the same compound, the GI50 in the experiment on SNB-19 is 47.3 µM (inactive); in the experiment with HCT-116 it was 37.3 µM (inactive); in the experiment with HCT-15 it was over 100 µM; with OVCAR-8, 92.9 µM (inactive); in the experiment on MCF7 it was 5.25 µM (inactive); with SK-MEL-2 it was 61.7 µM (inactive). Moreover, the GI50 in the experiment with SK-MEL-5 is 19.3 µM (inactive); in the experiment with MDA-MB-231, > 100 µM (inactive); in the experiment on Malme-3M it was 69.5 µM (inactive); in the experiment on MOLT-4 it was 63.4 µM (inactive); in the experiment with MDA-N, 41.6 µM (inactive).
